The values that follow come from ChEMBL document CHEMBL4342517, “Design, Synthesis, and Mechanism Study of Benzenesulfonamide-Containing Phenylalanine Derivatives as Novel HIV-1 Capsid Inhibitors with Improved Antiviral Activities” (J Med Chem, 2020).

The subject of series [1] is Human immunodeficiency virus 1. Briefly: Antiviral activity against HIV1 NL4-3 infected in human TZM-bl cells assessed as reduction in virus induced cytopathogenicity incubated for 1 day by luciferase reporter gene assay. The series is classed as functional, organism-based. The settings on record: Human immunodeficiency virus 1, NL4-3, TZM-bl, 24 h.
The next series concerns TZM. As to the kind of experiment: Cytotoxicity in uninfected human TZM-bl assessed as reduction in cell viability incubated for 1 day by Cyto-tox-Glo cytotoxicity assay. The series is classed as cell-based. The note with it: 24 h.

By EC50 is commonly meant the concentration at which the effect is half-maximal. For orientation: CC50 means the concentration giving 50% cytotoxicity. For `COc1ccc(N(C)C(=O)[C@H](Cc2ccccc2)NC(=O)CNS(=O)(=O)c2ccccc2F)cc1`, the EC50 in series [1] is 10.8 µM. Also, the CC50 with TZM was more than 40 µM.

Turning to `COc1ccc(N(C)C(=O)[C@H](Cc2ccccc2)NC(=O)CN2CCN(S(=O)(=O)c3cccc(F)c3)CC2=O)cc1`, the EC50 in series [1] was 0.45 µM. For the same compound, in the series on TZM, the CC50 is more than 34.3 µM.

Turning to `COc1ccc(N(C)C(=O)[C@H](Cc2ccccc2)NC(=O)CN2CCN(S(=O)(=O)c3ccccc3[N+](=O)[O-])CC2=O)cc1`, in series [1], the EC50 was found to be 1 µM.

As to `COc1ccc(N(C)C(=O)[C@H](Cc2ccccc2)NC(=O)CNS(=O)(=O)c2ccccc2N)cc1`, the concentration for a half-maximal effect (EC50) in series [1] amounted to 9.06 µM. For the same compound, the CC50 in the series with TZM is more than 40.3 µM.

Regarding `COc1ccc(N(C)C(=O)[C@H](Cc2ccccc2)NC(=O)CNS(=O)(=O)c2ccc([N+](=O)[O-])cc2)cc1`, the EC50 in series [1] was more than 38 µM. The CC50 with TZM is more than 38 µM.

With `COc1ccc(N(C)C(=O)[C@H](Cc2ccccc2)NC(=O)CNS(=O)(=O)c2ccc(N)cc2)cc1`, the EC50 in series [1] was found to be 6.65 µM. Further, the CC50 in the series on TZM is more than 40.3 µM.

On to `COc1ccc(N(C)C(=O)[C@H](Cc2ccccc2)NC(=O)CN2CCN(S(=O)(=O)c3cccc([N+](=O)[O-])c3)CC2=O)cc1`, for which the EC50 in series [1] was determined as 0.67 µM. Further, in the series on TZM, the CC50 was more than 32.8 µM.

As to `COc1ccc(N(C)C(=O)[C@H](Cc2ccccc2)NC(=O)CN2CCN(S(=O)(=O)c3ccc(OC)cc3)CC2=O)cc1`, in series [1], the EC50 worked out at 0.64 µM. Also, the CC50 with TZM was more than 33.6 µM.

In the case of `COc1ccc(N(C)C(=O)[C@H](Cc2ccccc2)NC(=O)CN2CCN(S(=O)(=O)c3ccc(Cl)cc3)CC2=O)cc1`, the EC50 in series [1] came to 1.05 µM. In addition, the CC50 in the series with TZM is more than 33.4 µM.

For the compound `COc1ccc(N(C)C(=O)[C@H](Cc2ccccc2)NC(=O)CNS(=O)(=O)c2ccc(C)cc2)cc1`, the EC50 in series [1] was 6.26 µM. The CC50 with TZM is more than 40.4 µM.

Regarding `COc1ccc(N(C)C(=O)[C@H](Cc2ccccc2)NC(=O)CN2CCN(S(=O)(=O)c3ccc(Br)cc3)CC2=O)cc1`, the EC50 in series [1] turned out to be 0.36 µM. The CC50 in the series with TZM was more than 31.1 µM.

Regarding `COc1ccc(N(C)C(=O)[C@H](Cc2ccccc2)NC(=O)CNS(=O)(=O)c2c(C)cc(C)cc2C)cc1`, in series [1], the EC50 is 10.7 µM. Besides, the CC50 in the series with TZM is more than 38.2 µM.

As for `COc1ccc(N(C)C(=O)[C@H](Cc2ccccc2)NC(=O)CNS(=O)(=O)c2ccccc2[N+](=O)[O-])cc1`, the EC50 in series [1] is 8.74 µM. Further, in the series on TZM, the CC50 was more than 38 µM.

With `COc1ccc(N(C)C(=O)[C@H](Cc2ccccc2)NC(=O)CN2C(=O)Nc3ccc(C)cc3S2(=O)=O)cc1`, in series [1], the EC50 came to 5.96 µM. In the series with TZM, the CC50 was more than 37.3 µM.

With `COc1ccc(N(C)C(=O)[C@H](Cc2ccccc2)NC(=O)CNS(=O)(=O)c2cccc(N)c2)cc1`, in series [1], the EC50 is 8.26 µM. Besides, the CC50 with TZM is more than 40.3 µM.

With `COc1ccc(N(C)C(=O)[C@H](Cc2ccccc2)NC(=O)CNS(=O)(=O)c2cccc([N+](=O)[O-])c2)cc1`, in series [1], the EC50 was 8.93 µM. Besides, the CC50 in the series on TZM is more than 38 µM.

Take `COc1ccc(N(C)C(=O)[C@H](Cc2ccccc2)NC(=O)CNS(=O)(=O)c2ccc(F)cc2)cc1`: in series [1], the EC50 is 6.81 µM. Moreover, the 50% cytotoxic concentration (CC50) in the series with TZM is more than 40 µM.

With `COc1ccc(N(C)C(=O)[C@H](Cc2ccccc2)NC(=O)CN2CCN(S(=O)(=O)c3ccc(F)cc3)CC2=O)cc1`, the EC50 in series [1] worked out at 1.06 µM. For the same compound, in the series with TZM, the CC50 turned out to be 25.7 µM.

For `COc1ccc(N(C)C(=O)[C@H](Cc2ccccc2)NC(=O)CNS(=O)(=O)c2cc(C)cc(C)c2)cc1`, the concentration giving a half-maximal response (EC50) in series [1] is 9.22 µM. In the series with TZM, the CC50 was more than 39.2 µM.

For `COc1ccc(N(C)C(=O)[C@H](Cc2ccccc2)NC(=O)CN2C(=O)Nc3ccc(OC)cc3S2(=O)=O)cc1`, in series [1], the EC50 was found to be 4.89 µM. Also, the CC50 with TZM was more than 36.2 µM.

For `COc1ccc(N(C)C(=O)[C@H](Cc2ccccc2)NC(=O)CN2CCN(S(=O)(=O)c3ccccc3N)CC2=O)cc1`, in series [1], the EC50 amounted to 0.54 µM. In addition, in the series on TZM, the CC50 is more than 34.5 µM.

For the compound `COc1ccc(N(C)C(=O)[C@H](Cc2ccccc2)NC(=O)CN2CCN(S(=O)(=O)c3ccc(C)cc3)CC2=O)cc1`, in series [1], the EC50 is 0.5 µM. In addition, the CC50 with TZM was more than 34.6 µM.
